# Patent US20070037790A1, “Bicyclo-pyrazole derivatives active as kinase inhibitors, process for their preparation and pharmaceutical compositions comprising them” (priority 2003, published 2007)
# Molecular target: Cdk2/Cyclin A (Homo sapiens, UniProt P24941)
# Experiment: Inhibition assay of Cdk2/Cyclin A activity (SPA)
# Assay type: biochemical
# Conditions: 10 μM ATP, biotinylated histone H1 substrate, read-out: IC50 against Cdk2/Cyclin A
# Experimental: The inhibiting activity of putative Cdk/Cyclin inhibitors and the potency of selected compounds is determined through a method of assay based on the use of the SPA technology (Amersham Pharmacia Biotech).
# The assay consists of the transfer of radioactivity labelled phosphate moiety by the kinase to a biotinylated substrate. The resulting 33P-labelled biotinylated product is allowed to bind to streptavidin-coated SPA beads (biotin capacity 130 pmol/mg), and light emitted is measured in a scintillation counter.
# Inhibition Assay of Cdk2/Cyclin A Activity
# Kinase reaction: 4 μM in house biotinylated histone H1 (Sigma # H-5505) substrate, 10 μM ATP (0.1 microCi P^33γ-ATP), 4.2 ng Cdk2/Cyclin A complex, inhibitor in a final volume of 30 μl buffer (TRIS HCl 10 mM pH 7.5, MgCl2 10 mM, DTT 7.5 mM+0.2 mg/ml BSA) were added to each well of a 96 U bottom. After 30 min at r.t. incubation, reaction was stopped by 100 μl PBS+32 mM EDTA+0.1% Triton X-100+500 μM ATP, containing 1 mg SPA beads. Then a volume of 110 μl is transferred to Optiplate. After 20 min. incubation for substrate capture, 100 μl 5M CsCl were added to allow statification of beads to the top of the plate and let stand 4 hours before radioactivity counting in the Top-Count instrument
# IC50 determination: inhibitors were tested at different concentrations ranging from 0.0015 to 10 μM. Experimental data were analyzed by the computer program GraphPad Prizm using the four parameter logistic equation: y=bottom+(top−bottom)/(1+10ˆ((log IC50−x)*slope)) where x is the logarithm of the inhibitor concentration, y is the response; y starts at bottom and goes to top with a sigmoid shape. Ki Calculation: Experimental method: Reaction was carried out in buffer (10 mM Tris, pH 7.5, 10 mM MgCl2, 0.2 mg/ml BSA, 7.5 mM DTI) containing 3.7 nM enzyme, histone and ATP (constant ratio of cold/labeled ATP 1/3000). Reaction was stopped with EDTA and the substrate captured on phosphomembrane (Multiscreen 96 well plates from Millipore). After extensive washing, the multiscreen plates are read on a top counter. Control (time zero) for each ATP and histone concentrations was measured. Experimental design: Reaction velocities are measured at different four ATP, substrate (histone) and inhibitor concentrations. An […] concentration matrix was designed around the respective ATP and substrate Km values, and the inhibitor IC50 values (0.3, 1, 3, 9 fold the Km or IC50 values). A preliminary time course experiment in the absence of inhibitor and at the different ATP and substrate concentrations allow the selection of a single endpoint time (10 min) in the linear range of the reaction for the Ki determination experiment. Kinetic parameter estimates: Kinetic parameters were estimated by simultaneous nonlinear least-square regression using [Eq.1] […]
row,IC50,Molecule
1,220 nM,"3-(4-tert-butyl-benzamido)-5-[(2-propylamino)pyrimidin-4-yl]-4,6-dihydropyrrolo[3,4-c]pyrazole"
2,340 nM,"CC(C)(C)c1ccc(C(=O)Nc2n[nH]c3c2CN(c2ccnc(N4CCOCC4)n2)C3)cc1 [3-(4-tert-butyl-benzamido)-5-[2-(N-morpholino)pyrimidin-4-yl]-4,6-dihydropyrrolo[3,4-c]pyrazole]"
3,> 10000 nM,"CC(C)(C)c1ccc(C(=O)Nc2[nH]nc3c2CN(C(=O)c2ccncc2)C3)cc1 [N-{5-(pyridine-4-carbonyl)-4,6-dihydropyrrolo[3,4-c]pyrazol-3-yl}-4-tertbutylbenzamide]"
4,2500 nM,"CC(C)(C)c1ccc(C(=O)Nc2[nH]nc3c2CN(C(=O)c2cnccn2)C3)cc1 [N-{5-(pyrazine-2-carbonyl)-4,6-dihydropyrrolo[3,4-c]pyrazol-3-yl}-4-tertbutylbenzamide]"
